Data: paper PMC5706701, “Development of a homogenous high-throughput assay for inositol hexakisphosphate kinase 1 activity” (PLoS ONE, 2017)
Counter-ions that a name gives are not always drawn.

Biological target: T1, Human IP6K1 (Homo sapiens, UniProt Q92551)
T1 construct: GST (N, cleaved yes); made in house; host or cells: C43 E. coli, pGEX-6P-2
Assay: IP6K1 high-throughput screen of the Sigma LOPAC (ADP-Glo Max, single point);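 also: final compound concentration 10µM in 5% DMSO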
Assay type: biochemical

[1] = LOPAC single-point screen, ADP-Glo Max luminescence raw signal per well
[2] = LOPAC single-point screen, Z-score relative to plate average and StDev
[3] = LOPAC single-point screen, ADP-Glo Max raw signal per well
[4] = LOPAC single-point screen, Z-score against plate average and StDev
[5] = Sigma LOPAC single-point screen, ADP-Glo Max raw signal per well
[6] = Sigma LOPAC single-point screen, Z-score from plate average and StDev
[7] = LOPAC single-point screen, Z-score from plate average and StDev
[8] = LOPAC single-point screen, Z-score from raw signal with plate average and StDev

T1 sequence (Q92551 whole entry): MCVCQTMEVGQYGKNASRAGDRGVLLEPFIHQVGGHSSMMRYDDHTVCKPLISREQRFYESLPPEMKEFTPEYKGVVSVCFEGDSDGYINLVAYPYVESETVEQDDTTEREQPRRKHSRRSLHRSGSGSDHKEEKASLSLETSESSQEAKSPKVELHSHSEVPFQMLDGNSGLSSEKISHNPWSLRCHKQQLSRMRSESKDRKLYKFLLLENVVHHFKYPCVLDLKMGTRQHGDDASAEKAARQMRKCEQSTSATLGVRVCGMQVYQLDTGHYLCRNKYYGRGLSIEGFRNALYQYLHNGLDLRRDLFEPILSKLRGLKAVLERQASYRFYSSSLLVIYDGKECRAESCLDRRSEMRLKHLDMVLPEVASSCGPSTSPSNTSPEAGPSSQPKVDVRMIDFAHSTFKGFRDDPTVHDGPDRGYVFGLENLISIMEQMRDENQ

CCCCc1ccc(C(=O)O)nc1 [Fusaric acid]
Raw Signal [1]: 50850
Z-score [2]: -0.8767

CC(=O)O[C@H]1C[C@@]2(C)[C@@H](C[C@@H](O)[C@H]3[C@@]4(C)CC[C@@H](O)[C@@H](C)[C@@H]4CC[C@@]32C)/C1=C(\CCC=C(C)C)C(=O)[O-].[Na+] [Fusidic acid sodium]
Raw Signal [3]: 56091
Z-score [4]: 0.1876

NCCCC(=O)O [GABA]
Raw Signal [5]: 63549
Z-score [6]: 0.9926

Cl.Cl.Fc1ccc(C(OCCN2CCN(CCCc3ccccc3)CC2)c2ccc(F)cc2)cc1 [GBR-12909 dihydrochloride]
Raw Signal [5]: 60047
Z-score [6]: 0.9911

Cl.Cl.c1ccc(CCCN2CCN(CCOC(c3ccccc3)c3ccccc3)CC2)cc1 [GBR-12935 dihydrochloride]
Raw Signal [1]: 62907
Z-score [7]: 1.572

COc1ccc(CNC(=O)/C=C/c2ccc3[nH]cc(CCN(C)C)c3c2)cc1 [GR 4661]
Raw Signal [1]: 54448
Z-score [2]: -0.6103

Cn1cc(C(=O)OCC2CCN(CCNS(C)(=O)=O)CC2)c2ccccc21 [GR 113808]
Raw Signal [3]: 56278
Z-score [8]: -0.288

COc1[nH]c2ccc(F)cc2c1C(=O)OCC1CCN(CCNS(C)(=O)=O)CC1.NS(=O)(=O)O [GR 125487 sulfamate salt]
Raw Signal [1]: 51618
Z-score [2]: -0.7208

COc1ccc(NC(=O)c2ccc(-c3ccc(-c4noc(C)n4)cc3C)cc2)cc1N1CCN(C)CC1.Cl [GR 127935 hydrochloride]
Raw Signal [1]: 51529
Z-score [2]: -0.4813

COC(=O)N1CCN(C(=O)Cc2ccc(Cl)c(Cl)c2)C(CN2CCCC2)C1.O=C(O)/C=C/C(=O)O (stereo not shown) [GR-89696 fumarate]
Raw Signal [3]: 54440
Z-score [8]: -0.1477

CN(CCOc1ccc(C[C@H](Nc2ccccc2C(=O)c2ccccc2)C(=O)O)cc1)c1ccccn1 [GW1929]
Raw Signal [3]: 55887
Z-score [4]: 0.1462

CN(C)c1cc2c(Nc3ccc4c(cnn4Cc4ccccc4)c3)ncnc2cn1 [GW2974]
Raw Signal [3]: 53289
Z-score [8]: -0.3814

O=C1Nc2ccc(I)cc2/C1=C/c1cc(Br)c(O)c(Br)c1 [GW5074]
Raw Signal [1]: 51521
Z-score [2]: -0.7405

CC(C)(Sc1ccc(CCN(CCCCC2CCCCC2)C(=O)NC2CCCCC2)cc1)C(=O)O [GW7647]
Raw Signal [1]: 52814
Z-score [2]: -0.4779

O=C(Nc1ccccc1)c1cc([N+](=O)[O-])ccc1Cl [GW9662]
Raw Signal [3]: 52726
Z-score [8]: -0.2802

CC1=NN=C(c2ccc(N)cc2)c2cc3c(cc2C1)OCO3.Cl [GYKI 52466 hydrochloride]
Raw Signal [1]: 61943
Z-score [7]: 1.376

CC1Cc2cc3c(cc2C(c2ccc(N)cc2)=NN1)OCO3 (stereo not shown) [GYKI 52895]
Raw Signal [1]: 63898
Z-score [7]: 1.773

Cl.NC1C=CC=C(C(=O)O)C1 (stereo not shown) [Gabaculine hydrochloride]
Raw Signal [5]: 64092
Z-score [6]: 1.088

NCC1(CC(=O)O)CCCCC1 [Gabapentin]
Raw Signal [1]: 51688
Z-score [2]: -0.7066

CC[N+](CC)(CC)CCOc1cccc(OCC[N+](CC)(CC)CC)c1OCC[N+](CC)(CC)CC [Gallamine triethiodide]
Raw Signal [3]: 56632
Z-score [4]: 0.2975

Nc1nc(O)c2ncn(COC(CO)CO)c2n1 [Ganciclovir]
Raw Signal [5]: 57228
Z-score [6]: 0.4186

O=c1c(-c2ccc(O)cc2)coc2cc(O)cc(O)c12 [Genistein]
Raw Signal [3]: 53223
Z-score [8]: -0.3948

COc1ccc(Cl)cc1C(=O)NCCc1ccc(S(=O)(=O)NC(=O)NC2CCCCC2)cc1 [Glibenclamide]
Raw Signal [5]: 57524
Z-score [6]: 0.4787

Cc1cnc(C(=O)NCCc2ccc(S(=O)(=O)NC(=O)NC3CCCCC3)cc2)cn1 [Glipizide]
Raw Signal [5]: 60018
Z-score [6]: 0.9852

N=C(N)N/N=C/c1c(Cl)cccc1Cl [Guanabenz acetate]
Raw Signal [3]: 54722
Z-score [4]: -0.09038

N=C(N)NC(=O)Cc1c(Cl)cccc1Cl [Guanfacine hydrochloride]
Raw Signal [3]: 54831
Z-score [4]: -0.06825

Br.Br.NC(N)=NCCSSCCN=C(N)N [Guanidinoethyl disulfide dihydrobromide]
Raw Signal [5]: 61778
Z-score [6]: 1.343

O=C(O)C1=CCCNC1 [Guvacine hydrochloride]
Raw Signal [3]: 56288
Z-score [4]: 0.2277

CC1CNCCN1S(=O)(=O)c1cccc2cnccc12.Cl.Cl (stereo not shown) [H-7 dihydrochloride]
Raw Signal [1]: 51716
Z-score [2]: -0.7009

CNCCNS(=O)(=O)c1cccc2cnccc12.Cl.Cl [H-8 dihydrochloride]
Raw Signal [3]: 53425
Z-score [8]: -0.1627

Cl.Cl.NCCNS(=O)(=O)c1cccc2cnccc12 [H-9 dihydrochloride]
Raw Signal [5]: 64375
Z-score [6]: 1.138

O=S(=O)(NCCNC/C=C/c1ccc(Br)cc1)c1cccc2cnccc12 [H-89]
Raw Signal [1]: 53512
Z-score [2]: -0.7752

O=S(=O)(c1cccc2cnccc12)N1CCNCC1 [HA-100]
Raw Signal [5]: 57010
Z-score [6]: 0.3743

Cl.NC(N)=NCCNS(=O)(=O)c1cccc2cnccc12 [HA-1004 hydrochloride]
Raw Signal [1]: 50838
Z-score [2]: -0.8792

CCCCC#Cc1nc(N)c2ncn([C@@H]3O[C@H](C(=O)NCC)[C@@H](O)[C@H]3O)c2n1 [HE-NECA]
Raw Signal [5]: 57534
Z-score [6]: 0.4807

O=C(CCCN1CCC(O)(c2ccc(Cl)cc2)CC1)c1ccc(F)cc1 [Haloperidol]
Raw Signal [1]: 51923
Z-score [2]: -0.6588

Cc1nccc2c1[nH]c1ccccc12 [Harmane]
Raw Signal [1]: 51802
Z-score [2]: -0.6834

C[N+]1(C)CCOC(O)(c2ccc(-c3ccc(C4(O)C[N+](C)(C)CCO4)cc3)cc2)C1 (stereo not shown) [Hemicholinium-3]
Z-score [8]: -0.115

C[N+](C)(C)CCCCCC[N+](C)(C)C [Hexamethonium bromide]
Raw Signal [3]: 55496
Z-score [4]: 0.06681

C[N+](C)(C)CCCCCC[N+](C)(C)C.[Cl-].[Cl-] [Hexamethonium dichloride]
Raw Signal [5]: 57643
Z-score [6]: 0.5028

O=c1cc(O)cc(/C=C/c2ccc(O)c(O)c2)o1 [Hispidin]
Raw Signal [1]: 48484
Z-score [2]: -1.357

NCCc1c[nH]cn1 [Histamine dihydrochloride]
Raw Signal [1]: 51759
Z-score [2]: -0.6921

NNc1nncc2ccccc12 [Hydralazine hydrochloride]
Raw Signal [3]: 53853
Z-score [8]: -0.2669

NS(=O)(=O)c1cc2c(cc1Cl)NCNS2(=O)=O [Hydrochlorothiazide]
Raw Signal [3]: 56632
Z-score [4]: 0.2975

C[C@]12CCC(=O)C=C1CC[C@@H]1[C@@H]2[C@@H](O)C[C@@]2(C)[C@H]1CC[C@]2(O)C(=O)COC(=O)CCC(=O)[O-].[Na+] [Hydrocortisone 21-hemisuccinate sodium]
Raw Signal [5]: 57689
Z-score [6]: 0.5122

C[C@]12CCC(=O)C=C1CC[C@@H]1[C@@H]2[C@@H](O)C[C@@]2(C)[C@H]1CC[C@]2(O)C(=O)CO [Hydrocortisone]
Raw Signal [3]: 54144
Z-score [8]: -0.2078

Oc1ccc(O)cc1 [Hydroquinone]
Raw Signal [5]: 59753
Z-score [6]: 0.9314

Cl.NO [Hydroxylamine hydrochloride]
Raw Signal [1]: 61813
Z-score [7]: 1.35

Nc1c2c(nc3ccccc13)CCCC2O.O=C(O)/C=C\C(=O)O (stereo not shown) [Hydroxytacrine maleate]
Raw Signal [3]: 53095
Z-score [8]: -0.4208

NC(=O)NO [Hydroxyurea]
Raw Signal [1]: 51854
Z-score [2]: -0.6728

NCCS(=O)O [Hypotaurine]
Raw Signal [3]: 53524
Z-score [8]: -0.3337

COc1cc(/C=C(\C#N)C(=O)c2ccc(O)c(O)c2)cc(I)c1O [I-OMe-Tyrphostin AG 538]
Raw Signal [3]: 53763
Z-score [8]: -0.4392

CNC(=O)[C@H]1O[C@@H](n2cnc3c(NCc4cccc(I)c4)ncnc32)[C@H](O)[C@@H]1O [IB-MECA]
Raw Signal [1]: 49701
Z-score [2]: -0.7885

COc1cc(OC)c(C=C2C(O)=Nc3ccccc32)c(OC)c1 [IC 261]
Raw Signal [3]: 54461
Z-score [8]: -0.3036

Cc1ccc(OCC(O)C(C)NC(C)C)c2c1CCC2.Cl (stereo not shown) [ICI 118,551 hydrochloride]
Raw Signal [5]: 57174
Z-score [6]: 0.4672

CN(C(=O)Cc1ccc(Cl)c(Cl)c1)C(CN1CCCC1)c1cccc(OCC(=O)O)c1.Cl (stereo not shown) [ICI 204,448 hydrochloride]
Raw Signal [3]: 53600
Z-score [8]: -0.1333

Br.C[N+](C)(C)CCCCCNCC12CC3CC(CC(C3)C1)C2.[Br-] [IEM-1460]
Raw Signal [3]: 53178
Z-score [8]: -0.404

CCCC(=O)NCCc1c2n(c3ccc(OC)cc13)Cc1ccccc1-2 [IIK7]
Raw Signal [3]: 53632
Z-score [8]: -0.128

Cl.Fc1ccc(CN(C2=NCCN2)c2c(Cl)cccc2Cl)cc1 [IMID-4F hydrochloride]
Raw Signal [5]: 60859
Z-score [6]: 1.156

CC(C)C(=O)c1c(C(C)C)nn2ccccc12 [Ibudilast]
Raw Signal [3]: 53701
Z-score [8]: -0.2977

O=C1NC(c2cccc([N+](=O)[O-])c2)=CCN1c1ccccc1O [Icilin]
Raw Signal [1]: 49844
Z-score [2]: -1.081

CC(=O)[C@]1(O)Cc2c(O)c3c(c(O)c2[C@@H](O[C@H]2C[C@H](N)[C@H](O)[C@H](C)O2)C1)C(=O)c1ccccc1C3=O [Idarubicin]
Raw Signal [3]: 55218
Z-score [4]: 0.01035

c1ccc2c(c1)OCC(C1=NCCN1)O2 (stereo not shown) [Idazoxan hydrochloride]
Raw Signal [5]: 58161
Z-score [6]: 0.633

CC(C(O)c1ccc(O)cc1)N1CCC(Cc2ccccc2)CC1.CC(C(O)c1ccc(O)cc1)N1CCC(Cc2ccccc2)CC1.O=C(O)C(O)C(O)C(=O)O (stereo not shown) [Ifenprodil tartrate]
Raw Signal [3]: 56294
Z-score [4]: 0.3193
